Where two headings read alike, the source gives them in different places.
Key:
LdtMt2 [1] = molecular target: T1, LdtMt2 (Mycobacterium tuberculosis, UniProt I6Y9J2); experiment: Fluorescence-based (fluorogenic probe 1) inhibition assay for LdtMt2; format: biochemical
LdtMt2 [2] = molecular target: T1, LdtMt2; experiment: High-throughput (RapidFire) protein mass spectrometry of covalent adduct formation with LdtMt2; format: biochemical; details: for time to complete reaction (adduct formation) with LdtMt2: LdtMt2 3 µM with two equivalents (6 µM) of inhibitor, 50 mM Tris pH 7.5; for stability of covalent complex with LdtMt2: after 24 hours, RapidFire MS
Method: Inhibition assays were performed in flat-bottomed 384-well μ-clear plates (Greiner Bio-One) with a final volume of 25 μL, and using 50 mM HEPES, pH 7.5 containing 0.01% (v/v) Triton X-100 as the assay buffer. LdtMt2 (100 nM) was treated with a range of inhibitor concentrations, and the mixture was incubated for 0, 10 or 60 minutes. Following this pre-incubation, fluorogenic probe 1 (25 μM)2 was added, and the mixture was incubated for a further 30 minutes. The fluorescence signal was then measured using a BMG Labtech PHERAstar FS with λex = 480 nm and λem = 520 nm using the bottom optic. All reactions were carried out in quadruplicate, and controls without inhibitor and without LdtMt2 were included. Inhibition results were normalised using the no inhibitor and no enzyme controls. Dose-response analysis was performed using Prism (GraphPad) with the log(inhibitor) vs normalized response -- variable slope model. Data points were plotted as mean average with the standard deviation as the […]
Mass spectrometric analyses were performed using an Agilent 6550 system equipped with a RapidFire sampler. Samples (100 µL) were prepared in 50 mM Tris, pH 7.5, consisting of 3 µM LdtMt2 and either 6 µM or 30 µM of the relevant inhibitor, as […]
Purified LdtMt2 Δ1-55 (approx. 1 mM; His-tag cleaved) in 50 mM Tris, pH 8.0, 100 mM NaCl was used for crystallography. Crystallisation trials were set up using the sitting drop vapour diffusion method with the JCSG+ broad screen (Molecular Dimensions). A structure of LdtMt2 Δ1-55 (PDB 6RLG) was solved using a crystal […]
Figure S3. MS analysis of the apparent covalent adducts formed with LdtMt2 and the cysteine-reactive inhibitors. […]
conditions used for mass spectrometry are described in the Experimental Details […]
(1 picture or pasted object on this page, not shown here)

[3] = without pre-incubation prior to addition of fluorogenic probe 1, LdtMt2 100 nM, probe 1 25 μM, read-out: IC50 (μM, mean ± SD) 0 min
[4] = IC50 (μM, mean ± SD) 10 min, 10 min pre-incubation prior to addition of fluorogenic probe 1, LdtMt2 100 nM, probe 1 25 μM
[5] = IC50 (μM, mean ± SD) 60 min, LdtMt2 100 nM, probe 1 25 μM

T1 sequence (I6Y9J2 56-408): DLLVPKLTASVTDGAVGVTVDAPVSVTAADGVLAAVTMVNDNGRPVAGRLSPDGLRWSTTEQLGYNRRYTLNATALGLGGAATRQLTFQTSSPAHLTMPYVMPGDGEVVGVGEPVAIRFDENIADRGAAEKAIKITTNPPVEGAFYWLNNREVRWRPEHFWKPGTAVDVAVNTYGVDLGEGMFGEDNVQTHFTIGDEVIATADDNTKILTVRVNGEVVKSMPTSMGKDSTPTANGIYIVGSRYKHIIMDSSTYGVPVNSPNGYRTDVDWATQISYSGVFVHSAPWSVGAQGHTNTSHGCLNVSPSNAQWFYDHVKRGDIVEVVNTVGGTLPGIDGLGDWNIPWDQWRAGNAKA

Row | SMILES | IC50 (LdtMt2 [1]; [3]) [µM] | time to complete reaction (adduct formation) with LdtMt2 (LdtMt2 [2]) [min] | IC50 (LdtMt2 [1]; [4]) [µM] | IC50 (LdtMt2 [1]; [5]) [µM] | also measured
1 | NC(=O)CI [Compound 2, Iodoacetamide] | 129 ± 14 | – | – | – | IC50 (LdtMt2 [1]; read-out: IC50 (μM, mean ± SD) 10 min, 10 min pre-incubation prior to addition of fluorogenic probe 1, LdtMt2 100 nM, probe 1 25 μM): 32.5 ± 1.4 µM; IC50 (LdtMt2 [1]; read-out: IC50 (μM, mean ± SD) 60 min, LdtMt2 100 nM, probe 1 25 μM): 10.1 ± 0.7 µM
2 | O=C1C=CC(=O)N1 [Compound 3, Maleimide] | – | > 82 | – | – | IC50 (LdtMt2 [1]; IC50 (μM, mean ± SD) 0 min): 158 ± 9 µM; IC50 (LdtMt2 [1]; IC50 (μM, mean ± SD) 10 min): 48.3 ± 3.6 µM; IC50 (LdtMt2 [1]; IC50 (μM, mean ± SD) 60 min): 18.6 ± 0.7 µM
3 | O=c1c2ccccc2[se]n1-c1ccccc1 [Compound 4, Ebselen] | 0.36 ± 0.02 | ≤ 1 | 0.159 ± 0.077 | 0.143 ± 0.014 | –
4 | Br[Se]c1ccccc1 [Compound 5, PhSeBr] | 11.8 ± 1.3 | – | 5.05 ± 0.35 | 2.02 ± 0.61 | –
5 | Cl[Se]c1ccccc1 [Compound 6, PhSeCl] | 62.8 ± 2.2 | – | 24.6 ± 0.9 | 20 ± 1.2 | –
6 | O=[Se](O)c1ccccc1 [Compound 7, PhSe(O)OH] | 309 ± 7 | – | 136 ± 17 | 93.2 ± 9.3 | –
7 | CN(C)C(=S)SSC(=S)N(C)C [Compound 8, Thiram] | 7.01 ± 0.29 | ≤ 45 | 2.93 ± 0.11 | 0.78 ± 0.029 | stability of covalent complex with LdtMt2 (LdtMt2 [2]): a small amount of unbound protein was observed
8 | c1ccc(SSc2ccccn2)nc1 [Compound 9, Aldrithiol] | 22.1 ± 0.7 | ≤ 10 | 5.35 ± 0.21 | 1.61 ± 0.03 | –
9 | CCC(C)SSc1ncc[nH]1 (stereo not drawn) [Compound 10, PX-12] | 27.2 ± 0.5 | – | 9.56 ± 0.25 | 2.48 ± 0.1 | –
10 | C[C@@H](O)[C@H]1C(=O)N2C(C(=O)O)=C([C@H]3CCCO3)S[C@H]12 [Compound 11, Faropenem] | – | – | – | – | stability of covalent complex with LdtMt2 (LdtMt2 [2]): a small amount of unbound protein was observed

Source: article PMC6984337, “Targeting the Mycobacterium tuberculosis transpeptidase LdtMt2 with cysteine-reactive inhibitors including ebselen” (Chemical Communications (Cambridge, England), 2019)
